Our source for the IC50, MIC and inhibition values is ChEMBL document CHEMBL3390835, “New insight into the mode of action of vancomycin dimers in bacterial cell wall synthesis” (Medchemcomm, 2011).

The subject of test [1] is Staphylococcus aureus. Description: Inhibition of cell wall synthesis in vancomycin-resistant Staphylococcus aureus assessed as reduction of lipid intermediate synthesis using UDP-Mur-NAc-pentapeptide (L-Ala-gamma-D-Glu-L-Lys-D-Ala-D-Lactate), UDPGlcNAc and [14C] glycine as precursors. The test is classed as functional, organism-based.
In test [2] the test system is Enterococcus faecium. Description: Antibacterial activity against vancomycin B-resistant Enterococcus faecium SR23598. The class given is functional.
The test system of test [3] is Staphylococcus aureus. Nature of the test: Antibacterial activity against vancomycin-susceptible Staphylococcus aureus RN4220. The test is classed as functional.
Test [4] deals with Staphylococcus aureus. Nature of the test: Inhibition of cell wall synthesis in vancomycin-susceptible Staphylococcus aureus assessed as reduction of lipid intermediate synthesis using UDP-Mur-NAc-pentapeptide (L-Ala-gamma-D-Glu-L-Lys-D-Ala-D-Ala), UDPGlcNAc and [14C] glycine as precursors. The test is classed as functional, organism-based.
The test system of test [5] is Staphylococcus aureus. Description: Inhibition of cell wall synthesis in vancomycin-susceptible Staphylococcus aureus assessed as reduction of peptidoglycan synthesis using UDP-Mur-NAc-pentapeptide (L-Ala-gamma-D-Glu-L-Lys-D-Ala-D-Ala), UDPGlcNAc and [14C] glycine as precursors. The test is classed as functional, organism-based.
Test [6] has as its system Enterococcus faecium. Description: Antibacterial activity against vancomycin A-resistant Enterococcus faecium SR7940. The test is classed as functional.
Test [7] has as its system Staphylococcus aureus. Description: Inhibition of cell wall synthesis in vancomycin-resistant Staphylococcus aureus assessed as reduction of peptidoglycan synthesis using UDP-Mur-NAc-pentapeptide (L-Ala-gamma-D-Glu-L-Lys-D-Ala-D-Lactate), UDPGlcNAc and [14C] glycine as precursors. The class given is functional, organism-based.
For test [8], the system named is Enterococcus faecium. Description: Inhibition of RNA synthesis in vancomycin B-resistant Enterococcus faecium SRM1101 assessed as [3H]uracil incorporation measured after 15 mins cultivation. The test is classed as functional, organism-based.
The subject of test [9] is Enterococcus faecium. Description: Inhibition of fatty acid synthesis in vancomycin B-resistant Enterococcus faecium SRM1101 assessed as [14C]acetic acid incorporation measured after 15 mins cultivation. The test is classed as functional, organism-based.
Test [10] relates to Enterococcus faecium. Nature of the test: Inhibition of peptidoglycan synthesis in vancomycin B-resistant Enterococcus faecium SRM1101 assessed as [3H]N-acetyl-D-glucosamine incorporation measured after 15 mins cultivation. The class given is functional, organism-based.
For test [11], the system named is Enterococcus faecium. Nature of the test: Inhibition of protein synthesis in vancomycin B-resistant Enterococcus faecium SRM1101 assessed as [14C]leucine incorporation measured after 15 mins cultivation. The test is classed as functional, organism-based.
Test [12] deals with Enterococcus faecium. Nature of the test: Inhibition of DNA synthesis in vancomycin B-resistant Enterococcus faecium SRM1101 assessed as [14C]thymidine incorporation measured after 15 mins cultivation. The class given is functional, organism-based.

SMILES strings stand for the structures. ≈ marks a conversion by molar mass, not a printed value. Calls of active or inactive are those of the source. The calls are words filed in the database; no cut-off is given here. Bounds are passed on as bounds.

For `CN[C@H](CC(C)C)C(=O)N[C@H]1C(=O)N[C@@H](CC(N)=O)C(=O)N[C@H]2C(=O)N[C@H]3C(=O)N[C@H](C(=O)N[C@H](C(=O)O)c4cc(O)cc(O)c4-c4cc3ccc4O)[C@H](O)c3ccc(c(Cl)c3)Oc3cc2cc(c3O[C@@H]2O[C@H](CO)[C@@H](O)[C@H](O)[C@H]2O[C@H]2C[C@](C)(NCc3c4oc5c(CN[C@@]6(C)C[C@H](O[C@H]7[C@H](Oc8c9cc%10cc8Oc8ccc(cc8Cl)[C@@H](O)[C@@H](NC(=O)[C@@H](CC(C)C)NC)C(=O)N[C@@H](CC(N)=O)C(=O)N[C@H]%10C(=O)N[C@H]8C(=O)N[C@H](C(=O)N[C@H](C(=O)O)c%10cc(O)cc(O)c%10-c%10cc8ccc%10O)[C@H](O)c8ccc(c(Cl)c8)O9)O[C@H](CO)[C@@H](O)[C@@H]7O)O[C@@H](C)[C@H]6O)cccc5nc-4cc(N)c3=O)[C@H](O)[C@H](C)O2)Oc2ccc(cc2Cl)[C@H]1O`, the IC50 turned out to be 700 µg/mL (≈ 223 µM) with Staphylococcus aureus [1], 98 µg/mL (≈ 31.3 µM) with Staphylococcus aureus [4], 2.2 µg/mL (≈ 0.702 µM) in the test with Staphylococcus aureus [5] and 31 µg/mL (≈ 9.89 µM) in the test with Staphylococcus aureus [7]. For the same molecule, the results for the MIC against Enterococcus faecium [2], against Staphylococcus aureus [3] and in the test with Enterococcus faecium [6] were 1 µg/mL (≈ 0.319 µM), 2 µg/mL (≈ 0.638 µM) and 8 µg/mL (≈ 2.55 µM), respectively.

`CN[C@H](CC(C)C)C(=O)N[C@H]1C(=O)N[C@@H](CC(N)=O)C(=O)N[C@H]2C(=O)N[C@H]3C(=O)N[C@H](C(=O)N[C@H](C(=O)NCc4cccc(NC(=O)c5c6nc7c(C(=O)Nc8cccc(CNC(=O)[C@H]9NC(=O)[C@H]%10NC(=O)[C@H](NC(=O)[C@@H]%11NC(=O)[C@H](CC(N)=O)NC(=O)[C@H](NC(=O)[C@@H](CC(C)C)NC)[C@H](O)c%12ccc(c(Cl)c%12)Oc%12cc%11cc(c%12O[C@@H]%11O[C@H](CO)[C@@H](O)[C@H](O)[C@H]%11O[C@H]%11C[C@](C)(N)[C@H](O)[C@H](C)O%11)Oc%11ccc(cc%11Cl)[C@H]%10O)c%10ccc(O)c(c%10)-c%10c(O)cc(O)cc%109)c8)ccc(C)c7oc-6c(C)c(=O)c5N)c4)c4cc(O)cc(O)c4-c4cc3ccc4O)[C@H](O)c3ccc(c(Cl)c3)Oc3cc2cc(c3O[C@@H]2O[C@H](CO)[C@@H](O)[C@H](O)[C@H]2O[C@H]2C[C@](C)(N)[C@H](O)[C@H](C)O2)Oc2ccc(cc2Cl)[C@H]1O`: the inhibition result in the test with Enterococcus faecium [8], with Enterococcus faecium [9], in the test on Enterococcus faecium [10], in the test on Enterococcus faecium [11] and in the test on Enterococcus faecium [12] was “inactive” throughout. The values for the MIC in the test on Enterococcus faecium [2], against Staphylococcus aureus [3] and in the test with Enterococcus faecium [6] were 16 µg/mL (≈ 4.71 µM), 8 µg/mL (≈ 2.35 µM) and 16 µg/mL (≈ 4.71 µM), respectively.

Take `Cc1c2oc3c(C)ccc(C(=O)Nc4cccc(CN[C@@]5(C)C[C@H](O[C@H]6[C@H](Oc7c8cc9cc7Oc7ccc(cc7Cl)[C@@H](O)[C@@H](N)C(=O)N[C@@H](CC(N)=O)C(=O)N[C@H]9C(=O)N[C@H]7C(=O)N[C@H](C(=O)N[C@H](C(=O)O)c9cc(O)cc(O)c9-c9cc7ccc9O)[C@H](O)c7ccc(c(Cl)c7)O8)O[C@H](CO)[C@@H](O)[C@@H]6O)O[C@@H](C)[C@H]5O)c4)c3nc-2c(C(=O)Nc2cccc(CN[C@@]3(C)C[C@H](O[C@H]4[C@H](Oc5c6cc7cc5Oc5ccc(cc5Cl)[C@@H](O)[C@@H](N)C(=O)N[C@@H](CC(N)=O)C(=O)N[C@H]7C(=O)N[C@H]5C(=O)N[C@H](C(=O)N[C@H](C(=O)O)c7cc(O)cc(O)c7-c7cc5ccc7O)[C@H](O)c5ccc(c(Cl)c5)O6)O[C@H](CO)[C@@H](O)[C@@H]4O)O[C@@H](C)[C@H]3O)c2)c(N)c1=O`: the IC50 came to 530 µg/mL (≈ 168 µM) in the test with Staphylococcus aureus [1], 460 µg/mL (≈ 146 µM) with Staphylococcus aureus [4], 20 µg/mL (≈ 6.36 µM) in the test with Staphylococcus aureus [5] and 100 µg/mL (≈ 31.8 µM) in the test on Staphylococcus aureus [7]. The MIC was 32 µg/mL (≈ 10.2 µM) with Enterococcus faecium [2], 4 µg/mL (≈ 1.27 µM) with Staphylococcus aureus [3] and above 64 µg/mL in the test on Enterococcus faecium [6].

Regarding `CN[C@H](CC(C)C)C(=O)N[C@H]1C(=O)N[C@@H](CC(N)=O)C(=O)N[C@H]2C(=O)N[C@H]3C(=O)N[C@H](C(=O)N[C@H](C(=O)O)c4cc(O)cc(O)c4-c4cc3ccc4O)[C@H](O)c3ccc(c(Cl)c3)Oc3cc2cc(c3O[C@@H]2O[C@H](CO)[C@@H](O)[C@H](O)[C@H]2O[C@H]2C[C@](C)(NCc3cccc(NC(=O)c4ccc(C)c5oc6c(C)c(=O)c(N)c(C(=O)Nc7cccc(CN[C@@]8(C)C[C@H](O[C@H]9[C@H](Oc%10c%11cc%12cc%10Oc%10ccc(cc%10Cl)[C@@H](O)[C@@H](N)C(=O)N[C@@H](CC(N)=O)C(=O)N[C@H]%12C(=O)N[C@H]%10C(=O)N[C@H](C(=O)N[C@H](C(=O)O)c%12cc(O)cc(O)c%12-c%12cc%10ccc%12O)[C@H](O)c%10ccc(c(Cl)c%10)O%11)O[C@H](CO)[C@@H](O)[C@@H]9O)O[C@@H](C)[C@H]8O)c7)c-6nc45)c3)[C@H](O)[C@H](C)O2)Oc2ccc(cc2Cl)[C@H]1O`, the inhibition result in the test with Enterococcus faecium [8], with Enterococcus faecium [9], in the test with Enterococcus faecium [10], in the test with Enterococcus faecium [11] and in the test with Enterococcus faecium [12] was “inactive” in each case. The IC50 is 300 µg/mL (≈ 91.6 µM) with Staphylococcus aureus [1], 74 µg/mL (≈ 22.6 µM) in the test with Staphylococcus aureus [4], 11 µg/mL (≈ 3.36 µM) with Staphylococcus aureus [5] and 61 µg/mL (≈ 18.6 µM) in the test with Staphylococcus aureus [7]. In addition, the results for the MIC against Enterococcus faecium [2], in the test with Staphylococcus aureus [3] and against Enterococcus faecium [6] were 2 µg/mL (≈ 0.611 µM), 1 µg/mL (≈ 0.305 µM) and 8 µg/mL (≈ 2.44 µM), respectively.

On to `CN[C@H](CC(C)C)C(=O)N[C@H]1C(=O)N[C@@H](CC(N)=O)C(=O)N[C@H]2C(=O)N[C@H]3C(=O)N[C@H](C(=O)N[C@H](C(=O)O)c4cc(O)cc(O)c4-c4cc3ccc4O)[C@H](O)c3ccc(c(Cl)c3)Oc3cc2cc(c3O[C@@H]2O[C@H](CO)[C@@H](O)[C@H](O)[C@H]2O[C@H]2C[C@](C)(N)[C@H](O)[C@H](C)O2)Oc2ccc(cc2Cl)[C@H]1O`, for which the inhibition entry in the test with Enterococcus faecium [8], with Enterococcus faecium [9], with Enterococcus faecium [10], in the test with Enterococcus faecium [11] and with Enterococcus faecium [12] was “inactive” in each case.

With `CN[C@H](CC(C)C)C(=O)N[C@H]1C(=O)N[C@@H](CC(N)=O)C(=O)N[C@H]2C(=O)N[C@H]3C(=O)N[C@H](C(=O)N[C@H](C(=O)NCc4c5oc6c(CNC(=O)[C@H]7NC(=O)[C@H]8NC(=O)[C@H](NC(=O)[C@@H]9NC(=O)[C@H](CC(N)=O)NC(=O)[C@H](NC(=O)[C@@H](CC(C)C)NC)[C@H](O)c%10ccc(c(Cl)c%10)Oc%10cc9cc(c%10O[C@@H]9O[C@H](CO)[C@@H](O)[C@H](O)[C@H]9O[C@H]9C[C@](C)(N)[C@H](O)[C@H](C)O9)Oc9ccc(cc9Cl)[C@H]8O)c8ccc(O)c(c8)-c8c(O)cc(O)cc87)cccc6nc-5cc(N)c4=O)c4cc(O)cc(O)c4-c4cc3ccc4O)[C@H](O)c3ccc(c(Cl)c3)Oc3cc2cc(c3O[C@@H]2O[C@H](CO)[C@@H](O)[C@H](O)[C@H]2O[C@H]2C[C@](C)(N)[C@H](O)[C@H](C)O2)Oc2ccc(cc2Cl)[C@H]1O`, the IC50 in the test with Staphylococcus aureus [1] came to 200 µg/mL (≈ 63.8 µM); in the test on Staphylococcus aureus [4] it was 64 µg/mL (≈ 20.4 µM); in the test on Staphylococcus aureus [5], 1.2 µg/mL (≈ 0.383 µM); in the test with Staphylococcus aureus [7], 21 µg/mL (≈ 6.7 µM). Besides, the figures for the MIC against Enterococcus faecium [2], against Staphylococcus aureus [3] and in the test with Enterococcus faecium [6] were 1 µg/mL (≈ 0.319 µM), 16 µg/mL (≈ 5.11 µM) and 4 µg/mL (≈ 1.28 µM), respectively.
